In ChEMBL document CHEMBL1201862, “PubChem BioAssay data set” (2004):
Where a name gives a salt, the structure may show the parent alone.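 Five compound concentrations were applied to cells in 96-well plates for 48 hours; endpoints were derived by simple linear interpolation of the resulting dose-response curve. GI50 = concentration required for 50% inhibition of growth.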 The source made the active and inactive calls. No stated cut-off is given here; in the data, active = GI50 up to about 1.1 µM and inactive = higher. Residues, ends and D or L forms follow the SMILES beside them. *: point of attachment. Tfa = O=C(C(F)(F)F)*

Tests used:
Assay in all cases: growth of human tumour cells (NCI), 48 h
SK-MEL-2 = system: SK-MEL-2
HOP-62 = system: HOP-62
OVCAR-8 = system: OVCAR-8
RPMI-8226 = system: RPMI-8226
SNB-19 = system: SNB-19
IGROV-1 = system: IGROV-1
PC-3 = system: PC-3
M14 = system: M14
KM12 = system: KM12
MCF7 = system: MCF7
NCI-H522 = system: NCI-H522
CAKI-1 = system: CAKI-1
OVCAR-3 = system: OVCAR-3
TK-10 = system: TK-10
OVCAR-4 = system: OVCAR-4
UO-31 = system: UO-31
SF-539 = system: SF-539
K562 = system: K562
HCT-15 = system: HCT-15
COLO 205 = system: COLO 205
HL-60 = system: HL-60
HCT-116 = system: HCT-116
T47D = system: T47D
U-251 = system: U-251
LOX IMVI = system: LOX IMVI
HOP-92 = system: HOP-92
MDA-MB-231 = system: MDA-MB-231
MDA-MB-435 = system: MDA-MB-435
NCI-H226 = system: NCI-H226
SF-295 = system: SF-295
MOLT-4 = system: MOLT-4
HT-29 = system: HT-29
BT-549 = system: BT-549
786-0 = system: 786-0
SR = system: SR
A549 = system: A549
UACC-257 = system: UACC-257
SK-OV-3 = system: SK-OV-3
DU-145 = system: DU-145
SF-268 = system: SF-268
Hs-578T = system: Hs-578T
SK-MEL-5 = system: SK-MEL-5
SN12C = system: SN12C
NCI/ADR-RES = system: NCI/ADR-RES
ACHN = system: ACHN
MDA-N = system: MDA-N
CCRF-CEM = system: CCRF-CEM
SNB-75 = system: SNB-75
SK-MEL-28 = system: SK-MEL-28
SW-620 = system: SW-620
EKVX = system: EKVX
NCI-H23 = system: NCI-H23
Malme-3M = system: Malme-3M
RXF 393 = system: RXF 393
OVCAR-5 = system: OVCAR-5
NCI-H460 = system: NCI-H460
HCC 2998 = system: HCC 2998
UACC-62 = system: UACC-62

O=C(c1ccccc1)c1ccc2[nH]c(-c3c(Cl)c(Cl)c(Cl)c(Cl)c3C(=O)N/N=C/c3ccc(Cl)cc3)nc2c1
GI50 (SK-MEL-2): 29.4 µM (inactive) | GI50 (HOP-62): 31.7 µM (inactive) | GI50 (OVCAR-8): 51.8 µM (inactive) | GI50 (RPMI-8226): 19.3 µM (inactive) | GI50 (SNB-19): 43 µM (inactive) | GI50 (IGROV-1): 33 µM (inactive) | GI50 (PC-3): 37 µM (inactive) | GI50 (M14): 30.1 µM (inactive) | GI50 (KM12): 48.4 µM (inactive) | GI50 (MCF7): 20.6 µM (inactive) | GI50 (NCI-H522): 19.5 µM (inactive) | GI50 (CAKI-1): 61.8 µM (inactive) | GI50 (OVCAR-3): 17.5 µM (inactive) | GI50 (TK-10): 40.1 µM (inactive) | GI50 (OVCAR-4): 30.3 µM (inactive) | GI50 (UO-31): 42.6 µM (inactive) | GI50 (SF-539): 64.9 µM (inactive) | GI50 (K562): 23.7 µM (inactive) | GI50 (HCT-15): 24.2 µM | GI50 (COLO 205): 28.1 µM (inactive) | GI50 (HL-60): 4.06 µM (inactive) | GI50 (HCT-116): 44.6 µM (inactive) | GI50 (T47D): 18.3 µM (inactive) | GI50 (U-251): 44.1 µM (inactive) | GI50 (LOX IMVI): 34 µM (inactive) | GI50 (HOP-92): 43.6 µM (inactive) | GI50 (MDA-MB-231): 20.7 µM (inactive) | GI50 (MDA-MB-435): 32.8 µM (inactive) | GI50 (NCI-H226): 39.8 µM (inactive) | GI50 (SF-295): 29 µM (inactive) | GI50 (MOLT-4): 18.3 µM (inactive) | GI50 (HT-29): 35.2 µM (inactive) | GI50 (BT-549): 33.7 µM (inactive) | GI50 (786-0): 31.2 µM (inactive) | GI50 (SR): 28.2 µM (inactive) | GI50 (A549): 33 µM (inactive) | GI50 (UACC-257): 43.3 µM (inactive) | GI50 (SK-OV-3): 41.1 µM (inactive) | GI50 (DU-145): 56.8 µM (inactive) | GI50 (SF-268): 40.7 µM (inactive) | GI50 (Hs-578T): 57.9 µM (inactive) | GI50 (SK-MEL-5): 17.2 µM (inactive) | GI50 (SN12C): 39.2 µM (inactive) | GI50 (NCI/ADR-RES): 47.8 µM (inactive) | GI50 (ACHN): 19.9 µM (inactive) | GI50 (MDA-N): 29.8 µM (inactive) | GI50 (CCRF-CEM): 18.3 µM (inactive) | GI50 (SNB-75): 47 µM (inactive) | GI50 (SK-MEL-28): 33 µM (inactive) | GI50 (SW-620): 54.3 µM (inactive) | GI50 (EKVX): 23.2 µM (inactive) | GI50 (NCI-H23): 30.1 µM (inactive) | GI50 (Malme-3M): 37.4 µM (inactive) | GI50 (RXF 393): 22.5 µM (inactive) | GI50 (OVCAR-5): 64.7 µM (inactive)

O=C(O)CC(NC(=O)C(F)(F)F)C(=O)NC(Cc1ccc(O)cc1)C(=O)O (stereo not drawn) (Tfa-Asp-Tyr-OH; configuration not given here)
GI50 (NCI-H460): > 50 µM (inactive) | GI50 (HCC 2998): > 50 µM (inactive) | GI50 (SK-MEL-2): > 50 µM (inactive) | GI50 (HOP-62): > 50 µM (inactive) | GI50 (OVCAR-8): > 50 µM (inactive) | GI50 (RPMI-8226): > 50 µM (inactive) | GI50 (SNB-19): > 50 µM (inactive) | GI50 (IGROV-1): > 50 µM (inactive) | GI50 (PC-3): > 50 µM (inactive) | GI50 (M14): > 50 µM (inactive) | GI50 (KM12): > 50 µM (inactive) | GI50 (MCF7): > 50 µM (inactive) | GI50 (NCI-H522): > 50 µM (inactive) | GI50 (CAKI-1): > 50 µM (inactive) | GI50 (OVCAR-3): > 50 µM (inactive) | GI50 (TK-10): > 50 µM (inactive) | GI50 (UO-31): > 50 µM (inactive) | GI50 (SF-539): > 50 µM (inactive) | GI50 (K562): > 50 µM (inactive) | GI50 (HCT-15): > 50 µM | GI50 (COLO 205): > 50 µM (inactive) | GI50 (T47D): > 50 µM (inactive) | GI50 (U-251): > 50 µM (inactive) | GI50 (HOP-92): > 50 µM (inactive) | GI50 (MDA-MB-231): > 50 µM (inactive) | GI50 (MDA-MB-435): > 50 µM (inactive) | GI50 (NCI-H226): > 50 µM (inactive) | GI50 (SF-295): > 50 µM (inactive) | GI50 (MOLT-4): > 50 µM (inactive) | GI50 (HT-29): > 50 µM (inactive) | GI50 (BT-549): > 50 µM (inactive) | GI50 (786-0): > 50 µM (inactive) | GI50 (SR): > 50 µM (inactive) | GI50 (A549): > 50 µM (inactive) | GI50 (UACC-257): > 50 µM (inactive) | GI50 (SK-OV-3): > 50 µM (inactive) | GI50 (DU-145): > 50 µM (inactive) | GI50 (SF-268): > 50 µM (inactive) | GI50 (Hs-578T): > 50 µM (inactive) | GI50 (SK-MEL-5): > 50 µM (inactive) | GI50 (SN12C): > 50 µM (inactive) | GI50 (UACC-62): > 50 µM (inactive) | GI50 (NCI/ADR-RES): > 50 µM (inactive) | GI50 (ACHN): > 50 µM (inactive) | GI50 (MDA-N): > 50 µM (inactive) | GI50 (SNB-75): > 50 µM (inactive) | GI50 (SK-MEL-28): > 50 µM (inactive) | GI50 (SW-620): > 50 µM (inactive) | GI50 (EKVX): > 50 µM (inactive) | GI50 (NCI-H23): > 50 µM (inactive) | GI50 (Malme-3M): > 50 µM (inactive) | GI50 (RXF 393): > 50 µM (inactive) | GI50 (OVCAR-5): > 50 µM (inactive)
